Source: patent US20240270762A1, “PENICILLIN-BINDING PROTEIN INHIBITORS” (priority 2021, published 2024)
Values after ≈ are worked out from the molar mass of the structure shown. Like-named read-outs stand apart in the source and are kept apart here.

Tests used:
A. baumannii PBP1a = target: T1, A. baumannii PBP1a (Acinetobacter baumannii, UniProt A0ABX6CK30); assay: Bocillin-FL competition binding via gel filtration, A. baumannii PBP1a
T1 sequence (A0ABX6CK30 1-851): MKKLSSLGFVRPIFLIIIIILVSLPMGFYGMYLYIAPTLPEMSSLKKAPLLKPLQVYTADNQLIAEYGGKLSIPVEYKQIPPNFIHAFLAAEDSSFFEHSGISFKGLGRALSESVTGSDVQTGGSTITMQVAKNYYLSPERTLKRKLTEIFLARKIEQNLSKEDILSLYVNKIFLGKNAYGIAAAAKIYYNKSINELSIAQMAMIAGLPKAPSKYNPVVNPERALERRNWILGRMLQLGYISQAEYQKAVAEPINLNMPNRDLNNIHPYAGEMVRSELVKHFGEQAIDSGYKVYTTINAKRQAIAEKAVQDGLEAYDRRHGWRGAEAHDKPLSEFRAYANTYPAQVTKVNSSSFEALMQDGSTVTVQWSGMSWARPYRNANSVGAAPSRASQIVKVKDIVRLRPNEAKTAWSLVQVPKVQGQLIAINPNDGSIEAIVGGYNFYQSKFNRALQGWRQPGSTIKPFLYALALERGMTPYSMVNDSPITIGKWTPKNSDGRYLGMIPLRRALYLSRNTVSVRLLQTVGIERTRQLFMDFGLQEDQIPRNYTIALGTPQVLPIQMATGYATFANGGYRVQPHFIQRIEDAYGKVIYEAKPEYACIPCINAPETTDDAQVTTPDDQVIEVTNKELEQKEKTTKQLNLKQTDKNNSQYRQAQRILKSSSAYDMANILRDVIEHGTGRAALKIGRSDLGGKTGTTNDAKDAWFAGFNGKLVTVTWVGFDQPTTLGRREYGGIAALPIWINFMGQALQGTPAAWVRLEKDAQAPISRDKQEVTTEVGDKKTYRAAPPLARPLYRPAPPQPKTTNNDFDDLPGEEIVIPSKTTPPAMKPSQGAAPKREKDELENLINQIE
Procedure: (§1) Affinity to A. baumannii PBP1a and PBP2 was assessed a competitive equilibrium binding assay using Bocillin-FL as the reporter molecule. Enzyme was pre-incubated with increasing concentrations of inhibitors, prior to addition of Bocillin and further incubation for 15 minutes. PBP bound with Bocillin-FL was separated by gel filtration using 96-well Zeba Spin size exclusion plates, and the fluorescence measured. The inhibitor affinity (reported as the EC50) was determined by plotting the fraction of PBP bound with Bocillin-FL at each inhibitor concentration against the inhibitor concentration, and fitting the data to the following equation:
(§2) [formula] • where y is the fraction bound at a given inhibitor concentration, ymin is the fraction bound when the enzyme is completely inactivated, ymax is the maximum (uninhibited) fraction bound, n is the Hill coefficient, and x is the inhibitor concentration.

A. baumannii PBP2 = A. baumannii PBP2 (Acinetobacter baumannii, UniProt D0C8Z9); assay: Bocillin-FL competition binding via gel filtration, A. baumannii PBP2
Procedure: as §1, §2

B. pseudomallei Bp82 = assay: microbe, parasite or virus in culture; format: cell-based; conditions: Burkholderia pseudomallei, BP82, read-out: Minimum inhibitory concentration, B. pseudomallei Bp82
[1] = system: B. thailandensis ATCC 700388; assay: microbe, parasite or virus in culture; format: cell-based; conditions: Burkholderia thailandensis, ATCC700388, read-out: Minimum inhibitory concentration (MIC), B. thailandensis ATCC 700388
[2] = system: B. humptydooensis ATCC BAA-2767; assay: microbe, parasite or virus in culture; format: cell-based; conditions: Burkholderia humptydooensis, ATCCBAA2767, read-out: Minimum inhibitory concentration (MIC), B. humptydooensis ATCC BAA-2767
[3] = target: T2, PBP3 from Escherichia coli (K-12) (Escherichia coli, UniProt P0AD68); assay: Bocillin-FL fluorescence polarization competition binding, E. coli PBP3
T2 construct: made in house
Excerpt: (§3) To determine the ability of boronic acid-based test PBP inhibitors to bind Penicillin Binding Proteins (PBPs), Bocillin-FL (fluorescently-labeled penicillin V; ThermoFisher Scientific) was used in a fluorescence polarization (FP) competition binding assay to assess inhibitor binding to PBP3 from Escherichia coli (K-12), PBP3 from Pseudomonas aeruginosa (PAO1), PBP1a and PBP3 from Acinetobacter baumannii (ATCC 19606), and PBP2 from Neisseria gonorrhoeae (FA19). PBPs were cloned and purified as described previously (E. coli PBP3, King, D. T, et al., ACS Infectious Diseases 2015, 1, 175-184; P. aeruginosa PBP3, Han et. al., PNAS 2010, 107 (51), 22002-22007; A. baumannii PBPs, Penwell et. al., Antimicrob. Agents Chemother. 2015, 59 (3), 1680-1689; N. gonorrhoeae PBP2, Singh et. al., J. Biol. Chem. 2019, 294 (38), 14020-14032). To establish assay conditions for competition binding, enzyme titration/saturation binding experiments were initially performed. Bocillin-FL was prepared at 0.2 μM in a buffer comprised of 50 mM Hepes (pH 8.0), 300 mM NaCl and 10% (v/v) glycerol for reactions with E. coli, P. aeruginosa and N. gonorrhoeae PBPs, and 25 mM Tris (pH 8.0), 200 mM NaCl, 10% (v/v) glycerol and 0.005% (v/v) Tween 20 for reactions with A. baumannii PBPs. Saturation binding was performed by mixing 40 μl of PBP solutions ranging in concentrations from 0-24 μM with 40 μl of the 0.2 μM Bocillin-FL solution, in individual wells of a black 384-well microplate. FP was measured immediately upon mixing (Excitation, 490 nm; Emission, 520 nm; g-factor, 0.96), using a Cytation3 (BioTek) microplate reader and measured continuously for up to 120 minutes. The FP response stabilized after 15 minutes for P. aeruginosa and A. baumannii PBP3, 30 minutes for E. coli PBP3 and A. baumannii PBP1a, and less than 1 minute for N. gonorrhoeae PBP2. […] The competition binding assay (80 μl final volume) was validated using beta-lactams and PBPs at final concentrations of: 1.5 μM for E. coli PBP3; 0.75 μM for P. aeruginosa PBP3; 1 μM for A. baumannii PBP1a; 0.2 μM for A. baumannii PBP3; and 0.25 μM for N. gonorrhoeae PBP2. Bocillin-FL was at 0.1 μM (0.05 μM with A. baumannii PBP1a) and beta-lactam concentrations ranged from 0-1,000 μM. E. coli PBP3 was incubated with increasing concentrations of ampicillin in a black 384-well microplate (Corning) for 30 minutes. P. aeruginosa PBP3 was incubated for 15 minutes with aztreonam, whereas A. baumannii PBP1a and PBP3 were incubated for 15 minutes with meropenem, and then Bocillin-FL was added followed immediately by the FP measurement for up to 60 minutes. […] The beta-lactam potency was reported as the concentration of beta-lactam required to reduce the amount of PBP bound-Bocillin-FL by 50% (EC50). […] The EC50 of aztreonam was determined to be <0.5 μM for P. aeruginosa PBP3. […] Binding assays for boronic acid PBP inhibitors were performed in an identical fashion for the respective PBPs.

[4] = target: T3, PBP3 from Pseudomonas aeruginosa (PAO1) (Pseudomonas aeruginosa, UniProt G3XD46); assay: Bocillin-FL fluorescence polarization competition binding, P. aeruginosa PBP3; conditions: Binding affinity to P. aeruginosa PBP3; fluorescence polarization competition binding assay using Bocillin-FL; read-out: P. aeruginosa PBP3 Potency
T3 construct: made in house
Excerpt: as §3

E. coli ATCC 25922 = assay: microbe, parasite or virus in culture; format: cell-based; conditions: Escherichia coli, ATCC25922, read-out: MIC E. coli 25922
E. coli AG100 = assay: microbe, parasite or virus in culture; format: cell-based; conditions: Escherichia coli, AG100, read-out: MIC E. coli AG100
E. coli 901C = assay: microbe, parasite or virus in culture; format: cell-based; conditions: Escherichia coli, read-out: MIC E. coli 901C
E. coli D22 = assay: microbe, parasite or virus in culture; format: cell-based; conditions: Escherichia coli, D22, read-out: MIC E. coli D22
E. coli AG100A = assay: Broth microdilution MIC in CAMHB; format: cell-based; conditions: Escherichia coli, read-out: MIC E. coli AG100A
K. pneumoniae 848844 = assay: microbe, parasite or virus in culture; format: cell-based; conditions: Klebsiella pneumoniae, 848844, read-out: MIC K. pneumoniae 848844
K. pneumoniae UMM = assay: microbe, parasite or virus in culture; format: cell-based; conditions: Klebsiella pneumoniae, read-out: MIC K. pneumoniae UMM
K. pneumoniae SI-117 = assay: microbe, parasite or virus in culture; format: cell-based; conditions: Klebsiella pneumoniae, SI117, read-out: MIC K. pneumoniae SI-117
P. aeruginosa ATCC 27853 = assay: microbe, parasite or virus in culture; format: cell-based; conditions: Pseudomonas aeruginosa, ATCC27853, read-out: MIC P. aeruginosa ATCC 27853
A. baumannii ATCC 19606 = assay: microbe, parasite or virus in culture; format: cell-based; conditions: Acinetobacter baumannii, ATCC19606, read-out: MIC, A. baumannii ATCC 19606
P. aeruginosa ATCC 35151 = assay: microbe, parasite or virus in culture; format: cell-based; conditions: Pseudomonas aeruginosa, ATCC35151, read-out: MIC P. aeruginosa ATCC 35151
[5] = system: P. aeruginosa (ΔmexAB-oprM); assay: Broth microdilution MIC in CAMHB; format: cell-based; conditions: Pseudomonas aeruginosa; read-out: MIC P. aeruginosa ΔmexAB-oprM

A. baumannii PBP2, sequence (D0C8Z9 whole entry): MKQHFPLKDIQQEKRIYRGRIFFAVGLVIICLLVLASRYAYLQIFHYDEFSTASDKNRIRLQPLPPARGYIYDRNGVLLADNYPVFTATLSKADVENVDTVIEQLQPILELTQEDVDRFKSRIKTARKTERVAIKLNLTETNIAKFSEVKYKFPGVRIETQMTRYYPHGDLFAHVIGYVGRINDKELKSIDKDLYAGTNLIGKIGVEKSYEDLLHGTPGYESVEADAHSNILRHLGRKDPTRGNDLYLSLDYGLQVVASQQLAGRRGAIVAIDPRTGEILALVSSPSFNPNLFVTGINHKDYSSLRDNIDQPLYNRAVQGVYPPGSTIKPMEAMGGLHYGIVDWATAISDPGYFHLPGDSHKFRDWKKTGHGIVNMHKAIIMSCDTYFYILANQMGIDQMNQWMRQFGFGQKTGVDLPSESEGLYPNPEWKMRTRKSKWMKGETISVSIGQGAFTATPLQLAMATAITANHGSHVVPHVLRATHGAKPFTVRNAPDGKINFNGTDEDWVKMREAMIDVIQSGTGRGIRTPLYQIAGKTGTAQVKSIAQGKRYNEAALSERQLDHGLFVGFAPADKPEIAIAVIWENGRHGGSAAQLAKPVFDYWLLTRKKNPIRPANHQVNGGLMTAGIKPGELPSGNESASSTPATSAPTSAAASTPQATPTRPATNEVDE
T2 sequence (P0AD68 1-577): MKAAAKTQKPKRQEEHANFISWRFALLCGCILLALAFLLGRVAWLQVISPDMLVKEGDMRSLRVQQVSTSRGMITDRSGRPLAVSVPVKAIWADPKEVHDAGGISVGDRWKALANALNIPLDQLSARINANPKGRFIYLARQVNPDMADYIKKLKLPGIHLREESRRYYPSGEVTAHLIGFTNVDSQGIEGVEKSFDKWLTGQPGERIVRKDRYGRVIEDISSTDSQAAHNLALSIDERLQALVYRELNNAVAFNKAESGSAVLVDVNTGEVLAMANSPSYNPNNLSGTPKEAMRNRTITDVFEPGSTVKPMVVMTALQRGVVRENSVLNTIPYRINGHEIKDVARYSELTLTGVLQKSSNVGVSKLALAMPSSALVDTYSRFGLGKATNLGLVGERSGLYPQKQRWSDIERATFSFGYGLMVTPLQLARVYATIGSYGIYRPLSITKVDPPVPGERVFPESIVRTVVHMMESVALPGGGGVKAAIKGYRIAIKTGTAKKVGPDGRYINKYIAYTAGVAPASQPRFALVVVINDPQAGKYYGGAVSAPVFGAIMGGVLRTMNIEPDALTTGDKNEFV
T3 sequence (G3XD46 whole entry): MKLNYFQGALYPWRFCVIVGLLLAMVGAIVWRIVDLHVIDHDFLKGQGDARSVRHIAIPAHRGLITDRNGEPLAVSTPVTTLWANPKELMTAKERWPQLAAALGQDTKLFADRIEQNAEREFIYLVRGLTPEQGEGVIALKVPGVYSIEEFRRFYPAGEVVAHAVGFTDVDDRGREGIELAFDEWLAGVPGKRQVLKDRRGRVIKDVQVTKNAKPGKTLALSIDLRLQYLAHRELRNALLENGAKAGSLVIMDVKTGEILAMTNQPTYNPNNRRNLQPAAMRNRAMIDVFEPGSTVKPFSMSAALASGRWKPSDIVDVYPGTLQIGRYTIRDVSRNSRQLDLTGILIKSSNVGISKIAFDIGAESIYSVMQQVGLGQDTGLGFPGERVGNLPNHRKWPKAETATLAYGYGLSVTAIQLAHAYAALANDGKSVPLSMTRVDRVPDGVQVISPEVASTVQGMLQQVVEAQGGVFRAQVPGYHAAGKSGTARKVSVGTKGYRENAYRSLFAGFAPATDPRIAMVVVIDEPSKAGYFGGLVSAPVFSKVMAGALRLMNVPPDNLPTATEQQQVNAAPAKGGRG

Row | SMILES | EC50 (A. baumannii PBP1a) | EC50 (A. baumannii PBP2) | MIC (B. pseudomallei Bp82) | MIC [1] | MIC [2] | EC50 (A. baumannii PBP1a; competition binding assay using Bocillin-FL via gel filtration, read-out: A. baumannii PBP1a Potency) | EC50 [3] | IC50 [4] | MIC (E. coli ATCC 25922) | MIC (E. coli AG100) | MIC (E. coli 901C) | MIC (E. coli D22) | MIC (E. coli AG100A) | MIC (K. pneumoniae 848844) | MIC (K. pneumoniae UMM) | MIC (K. pneumoniae SI-117) | MIC (P. aeruginosa ATCC 27853) | MIC (A. baumannii ATCC 19606) | MIC (P. aeruginosa ATCC 35151) | MIC [5]
1 | O=C(O)c1c(F)ccc2c1OB(O)[C@@H](NC(=O)C(NC(=O)N1CCN(C3CCN(Cc4cccc(O)c4)CC3)C1=O)c1cc(F)c(O)c(O)c1Cl)C2 (stereo partly drawn) [Example 605, (3R)-3-(2-(2-chloro-5-fluoro-3,4-dihydroxyphenyl)-2-(3-(1-(3-hydroxybenzyl)piperidin-4-yl)-2-oxoimidazolidine-1-carboxamido)acetamido)-7-fluoro-2-hydroxy-3,4-dihydro-2H-benzo[e][1,2]oxaborinine-8-carboxylic acid] | < 10 µM | 10 to 50 µM | < 1 µg/mL | < 1 µg/mL | < 1 µg/mL | – | – | – | – | – | – | – | – | – | – | – | – | – | – | –
2 | O=C(O)c1c(F)ccc2c1OB(O)[C@@H](NC(=O)C(NC(=O)N1CCN(C3CCN(Cc4cc(O)cc(O)c4)CC3)C1=O)c1cc(F)c(O)c(O)c1Cl)C2 (single isomer, unassigned) [Example 612] | – | 10 to 50 µM | < 1 µg/mL | < 1 µg/mL | < 1 µg/mL | < 10 µM | – | – | – | – | – | – | – | – | – | – | – | – | – | –
3 | O=C(N[C@@H](C(=O)N[C@H]1Cc2cccc(C(=O)O)c2OB1O)c1ccc(P(=O)(O)O)cc1)c1cnc2cccn2c1 (single isomer, unassigned) [Example 499] | – | – | – | – | – | – | 10 to 50 µM | < 10 µM | > 128 µg/mL | > 128 µg/mL | 2 to 4 µg/mL (≈ 3.54 to 7.09 µM) | 32 to 64 µg/mL (≈ 56.7 to 113 µM) | 32 to 64 µg/mL (≈ 56.7 to 113 µM) | > 128 µg/mL | > 128 µg/mL | > 128 µg/mL | > 128 µg/mL | > 128 µg/mL | 2 to 4 µg/mL (≈ 3.54 to 7.09 µM) | 32 to 64 µg/mL (≈ 56.7 to 113 µM)
